Measured values published in patent publication US20220387268A1, “OIL-IN-WATER MACROEMULSION” (SYMRISE AG, priority 2019, published 2022).

Legend:
[1] = water solubility; assay type: physicochemical; settings: room temperature
[2] = log P value (octanol:water); assay type: physicochemical; settings: water/n-octanol
Excerpt: The partition coefficient (P) is the ratio of concentrations of a compound in a mixture of two immiscible solvents at equilibrium. This ratio is therefore a comparison of the solubility of the solute in these two liquids. In the chemical and pharmaceutical sciences, both phases usually are solvents. Most commonly, one of the solvents is water, while the second is hydrophobic such as 1-octanol.
Log P=log 10(Partition Coefficient)
Partition Coefficient,P=[organic]/[aqueous]

SMILES | Water solubility [1] [µg/mL] | log P [2]
CCCCCC1C(=O)CCC1CC(=O)OC (stereo not shown) [HEDION] | 401.5 | 
O=C1CCCCCCCCCCCC(=O)OCCO1 [ETHYLENBRASSYLAT] | 20.9 | 4.71
CCC(C)(O)CCCC(C)C (stereo not shown) [TETRAHYDROLINALOOL] | 492.4 | 3.6
O=Cc1ccc2c(c1)OCO2 [HELIOTROPIN/PIPERONAL] | 2260.1 | 1.77
CCCC(=O)OC(C)(C)Cc1ccccc1 [DIMETHYLBENZYLCARBINYLBUTYRAT] |  | 4.43
CC(=O)OC1CCCCC1C(C)(C)C (stereo not shown) [AGRUMEX LC] | 17.6 | 
CC(C=O)Cc1ccc(C(C)C)cc1 (stereo not shown) | 17.8 | 3.91
C=CC(C)CCCC(C)(C)O (stereo not shown) [DIHYDROMYRCENOL] | 671.2 | 3.47
CCCCCC1CCC(=O)O1 (stereo not shown) [ALDEHYD C18 SOG.] | 2373.1 | 
CCCCCC/C(C=O)=C\c1ccccc1 [HEXYLZIMTALDEHYD ALPHA] | 1.2 | 4.82
